The test system of series [1] is Plasmodium falciparum. Briefly: Antiplasmodial activity against ring stage Plasmodium falciparum Dd2 assessed as reduction in parasite growth after 72 hrs by SYBR Green 1 staining based assay. Type of series: functional, organism-based. The settings on record: Dd2, 72 h.
Another series deals with A2780. The experiment in a line: Antiproliferative activity against human A2780 cells assessed as reduction in cell viability after 2 days hrs by AlamarBlue assay. It is filed as functional, cell-based. Particulars: A2780, 48 h.
The subject of series [2] is Erythrocyte. Briefly: Hemolytic activity against human erythrocytes infected with ring stage Plasmodium falciparum Dd2 assessed as reduction in cell viability at 3 uM up to 72 hrs by Giemsa-staining based light microscopic analysis.
The subject of series [3] is Erythrocyte. The experiment in a line: Hemolytic activity against human erythrocytes infected with ring stage Plasmodium falciparum Dd2 assessed as morphological changes at 3 uM up to 72 hrs by Giemsa-staining based light microscopic analysis. It is filed as ADME, cell-based.
In series [4] the test system is Plasmodium falciparum. The experiment in a line: Antiplasmodial activity against ring stage Plasmodium falciparum Dd2 infected in human erythrocytes assessed as reduction in trophozoites formation at 3 uM up to 72 hrs by Giemsa-staining based light microscopic analysis. Type of series: functional, organism-based.
Series [5] deals with Erythrocyte. The experiment in a line: Hemolytic activity against human erythrocytes infected with ring stage Plasmodium falciparum Dd2 assessed as morphological changes at IC50 concentration up to 72 hrs. It is filed as ADME, cell-based.
The subject of series [6] is Erythrocyte. The experiment in a line: Hemolytic activity against human erythrocytes assessed as morphological changes at IC50 concentration up to 72 hrs. It is filed as ADME, cell-based.
In series [7] the test system is Erythrocyte. The experiment in a line: Hemolytic activity against human erythrocytes infected with ring stage Plasmodium falciparum Dd2 assessed as reduction in cell viability at 6 uM up to 72 hrs by Giemsa-staining based light microscopic analysis.
For series [8], the system named is Erythrocyte. The experiment in a line: Hemolytic activity against human erythrocytes infected with ring stage Plasmodium falciparum Dd2 assessed as morphological changes at 6 uM up to 72 hrs by Giemsa-staining based light microscopic analysis. It is filed as ADME, cell-based.
Series [9] concerns Plasmodium falciparum. Briefly: Antiplasmodial activity against ring stage Plasmodium falciparum Dd2 infected in human erythrocytes assessed as reduction in trophozoites formation at 6 uM up to 72 hrs by Giemsa-staining based light microscopic analysis. It is filed as functional, organism-based.
Series [10] has as its system Erythrocyte. Briefly: Hemolytic activity against human erythrocytes infected with ring stage Plasmodium falciparum Dd2 assessed as reduction in cell viability at 11 uM up to 72 hrs by Giemsa-staining based light microscopic analysis.
The test system of series [11] is Erythrocyte. The experiment in a line: Hemolytic activity against human erythrocytes infected with ring stage Plasmodium falciparum Dd2 assessed as morphological changes at 11 uM up to 72 hrs by Giemsa-staining based light microscopic analysis. It is filed as ADME, cell-based.
Series [12] has as its system Plasmodium falciparum. The experiment in a line: Antiplasmodial activity against ring stage Plasmodium falciparum Dd2 infected in human erythrocytes assessed as reduction in trophozoites formation at 11 uM up to 72 hrs by Giemsa-staining based light microscopic analysis. It is filed as functional, organism-based.

The structures appear in SMILES notation. Active and inactive are the calls of the source. No cut-off for these calls is given here.

As a reminder, the IC50 is the concentration at which inhibition is half-maximal.

`COc1ccc(C(=O)O[C@H]2[C@H](O[C@H]3C[C@H]4[C@@H]5CC=C6C[C@@H](O)CC[C@]6(C)[C@H]5CC[C@]4(C)[C@@]3(O)[C@H](C)C(=O)CCC(C)C)OC[C@H](O)[C@@H]2O)cc1OC`: the values for the half-maximal inhibitory concentration (IC50) in the series on Plasmodium falciparum [1] and in the series with A2780 were 210 nM and 140 nM, respectively. For the same compound, the Activity entry in the series with Erythrocyte [2], with Erythrocyte [3], in the series with Erythrocyte [5] and with Erythrocyte [6] was “Non-Toxic” throughout. Further, the result with Plasmodium falciparum [4] was Active.
On to `CC(=O)O[C@H]1[C@H](O[C@H]2C[C@H]3[C@@H]4CC=C5C[C@@H](O)CC[C@]5(C)[C@H]4CC[C@]3(C)[C@@]2(O)[C@H](C)C(=O)CCC(C)C)OC[C@H](O)[C@@H]1O[C@@H]1OC[C@@H](O)[C@H](O)[C@H]1OC(=O)/C=C/c1ccccc1`, for which the half-inhibitory concentration (IC50) with Plasmodium falciparum [1] stood at 950 nM; in the series with A2780 it was 100 nM. The Activity entry with Erythrocyte [5] and with Erythrocyte [6] was “Non-Toxic” in each case.
Turning to `CC(=O)O[C@H]1[C@H](O[C@H]2C[C@H]3[C@@H]4CC=C5C[C@@H](O)CC[C@]5(C)[C@H]4CC[C@]3(C)[C@H]2[C@H](C)C(=O)CCC(C)C)OC[C@H](O)[C@@H]1O[C@@H]1OC[C@@H](O)[C@H](O)[C@H]1OC(=O)/C=C/c1ccccc1`, the figures for the IC50 in the series with Plasmodium falciparum [1] and in the series with A2780 were 420 nM and 100 nM, respectively. The Activity entry with Erythrocyte [7], in the series with Erythrocyte [8], with Erythrocyte [5] and in the series on Erythrocyte [6] was “Non-Toxic” throughout. For the same compound, the outcome in the series on Plasmodium falciparum [9] was Active.
Turning to `COc1cc(C(=O)O[C@H]2[C@H](O[C@@H]3[C@@H](OC(C)=O)[C@H](O[C@H]4C[C@H]5[C@@H]6CC=C7C[C@@H](O)CC[C@]7(C)[C@H]6CC[C@]5(C)[C@H]4[C@H](C)C(=O)CCC(C)C)OC[C@@H]3O)OC[C@@H](O)[C@@H]2O)cc(OC)c1OC`, the IC50 with Plasmodium falciparum [1] stood at 610 nM; in the series on A2780 it was 100 nM. The Activity entry in the series with Erythrocyte [10], in the series on Erythrocyte [11], with Erythrocyte [5] and in the series with Erythrocyte [6] was “Non-Toxic” throughout. Moreover, the result in the series with Plasmodium falciparum [12] was Active.
Regarding `COc1cc(C(=O)O[C@H]2[C@H](O[C@@H]3[C@@H](OC(C)=O)[C@H](O[C@H]4C[C@H]5[C@@H]6CC=C7C[C@@H](O)CC[C@]7(C)[C@H]6CC[C@]5(C)[C@@]4(O)[C@H](C)C(=O)CCC(C)C)OC[C@@H]3O)OC[C@@H](O)[C@@H]2O)cc(OC)c1OC`, the IC50 in the series with Plasmodium falciparum [1] amounted to 560 nM; in the series with A2780, 90 nM. In addition, the Activity result in the series with Erythrocyte [10], in the series on Erythrocyte [11], in the series on Erythrocyte [5] and in the series on Erythrocyte [6] was “Non-Toxic” each time. Further, the outcome with Plasmodium falciparum [12] was Active.
Consider `COc1ccc(C(=O)O[C@H]2[C@H](O[C@@H]3[C@@H](OC(C)=O)[C@H](O[C@H]4C[C@H]5[C@@H]6CC=C7C[C@@H](O)CC[C@]7(C)[C@H]6CC[C@]5(C)[C@H]4[C@H](C)C(=O)CCC(C)C)OC[C@@H]3O)OC[C@@H](O)[C@@H]2O)cc1OC`, for which the half-maximal inhibitory concentration (IC50) in the series with Plasmodium falciparum [1] came to 630 nM; in the series with A2780 it was 100 nM. The Activity entry in the series on Erythrocyte [10], in the series with Erythrocyte [11], in the series on Erythrocyte [5] and with Erythrocyte [6] was “Non-Toxic” each time. Besides, in the series on Plasmodium falciparum [12], the result was Active.
With `COc1ccc(C(=O)O[C@H]2[C@H](O[C@@H]3[C@@H](OC(C)=O)[C@H](O[C@H]4C[C@H]5[C@@H]6CC=C7C[C@@H](O)CC[C@]7(C)[C@H]6CC[C@]5(C)[C@@]4(O)[C@H](C)C(=O)CCC(C)C)OC[C@@H]3O)OC[C@@H](O)[C@@H]2O)cc1OC`, the IC50 in the series on Plasmodium falciparum [1] is 1510 nM; in the series on A2780 it was 100 nM. Besides, the Activity entry in the series on Erythrocyte [5] and in the series on Erythrocyte [6] was “Non-Toxic” each time.
For the compound `C[C@@H]1CC[C@H]2[C@@H](C)C(=O)O[C@@H]3O[C@@]4(C)CC[C@@H]1[C@]32OO4` [ARTEMISININ], in the series with Plasmodium falciparum [1], the IC50 was determined as 6.5 nM.

These data come from ChEMBL document CHEMBL4610099, “Galtonosides A-E: Antiproliferative and Antiplasmodial Cholestane Glycosides from Galtonia regalis” (J Nat Prod, 2020).
